These results are taken from patent US8329712B2, “Heterocyclic antiviral compounds” (Roche Palo Alto LLC, priority 2010, dated 2012).

Series [1] has as its target T1, HCV polymerase (NS5B570n-Con1) (Hepatitis C virus genotype 1b, UniProt Q9WMX2).
T1 construct: contains a 21 amino acid deletion at the C-terminus relative to the full-length HCV polymerase; 6-histidine (N); made in house; host or cells: E. coli strain BL21(DE) pLysS, plasmid pET 17b
Briefly: HCV NS5B RNA polymerase activity assay (incorporation of radiolabeled UTP). The format is biochemical, HCV Con1 strain. The protocol:
The enzymatic activity of HCV polymerase (NS5B570n-Con1) was measured as the incorporation of radiolabeled nucleotide monophosphates into acid insoluble RNA products. Unincorporated radiolabeled substrate was removed by filtration and scintillant was added to the washed and dried filter plate containing radiolabeled RNA product. The amount of RNA product generated by NS5B570-Con1 at the end of the reaction was directly proportional to the amount of light emitted by the scintillant.
The N-terminal 6-histidine tagged HCV polymerase, derived from HCV Con1 strain, genotype 1b (NS5B570n-Con1) contains a 21 amino acid deletion at the C-terminus relative to the full-length HCV polymerase and was purified from E. coli strain BL21(DE) pLysS. The construct, containing the coding sequence of HCV NS5B Con1 (GenBank accession number AJ242654) was inserted into the plasmid construct pET 17b, downstream of a T7 promoter expression cassette and transformed into E. coli. A single colony was grown overnight as a starter culture and later used inoculate 10 L of LB media supplemented with 100 μg/mL ampicillin at 37° C. Protein expression was induced by the addition of 0.25 mM isopropyl-β-D-thiogalactopyranoside (IPTG) when optical density at […] of the culture was between 0.6 and 0.8 and cells were harvested after 16 to 18 h at 30° C. NS5B570n-Con1 was purified to homogeneity using a three-step protocol including subsequent column chromatography on Ni-NTA, SP-Sepharose HP and Superdex 75 resins.
Each 50 μL enzymatic reaction contained 20 nM RNA template derived from the complementary sequence of the Internal Ribosome Entry Site (cIRES), 20 nM NS5B570n-Con1 enzyme, 0.5 μCi of tritiated UTP (Perkin Elmer catalog no. TRK-412; specific activity: 30 to 60 Ci/mmol; stock solution concentration from 7.5×10^−5 M to 20.6×10^−6 M), 1 μM each ATP, CTP, and GTP, 40 mM Tris-HCl pH 8.0, 40 mM NaCl, 4 mM DTT (dithiothreitol), 4 mM MgC12, and 5 μL of compound serial diluted in DMSO. Reaction mixtures were assembled in 96-well filter plates (cat #MADVNOB, Millipore Co.) and incubated for 2 h at 30° C. Reactions were stopped by addition of 10% final (v/v) trichloroacetic acid and incubated for 40 min at 4° C. Reactions were filtered, washed with 8 reaction volumes of 10% (v/v) trichloroacetic acetic acid, 4 reaction volumes of 70% (v/v) ethanol, air dried, and 25 μL of scintillant (Microscint 20, Perkin-Elmer) was added to each reaction well.
The amount of light emitted from the scintillant was converted to counts per minute (CPM) on a Topcount® plate reader (Perkin-Elmer, Energy Range: Low, Efficiency Mode Normal, Count Time: 1 min, Background Subtract: none, Cross talk reduction: Off).
Data was analyzed in Excel® (Microsoft) and ActivityBase® (Idbs®). The reaction in the absence of enzyme was used to determine the background signal, which was subtracted from the enzymatic reactions. Positive control reactions were performed in the absence of compound, from which the background corrected activity was set as 100% polymerase activity. All data was expressed as a percentage of the positive control. The compound concentration at which the enzyme-catalyzed rate of RNA synthesis was reduced by 50% (IC50) was calculated by fitting equation (i) to the data where“Y” […]

Series [2] is described as follows: in vitro. As to conditions: human.
Series [3] relates to HCV replicon cells (2209-23), genotype 1b replicon in Huh7 cells. Briefly: HCV replicon assay (Renilla luciferase reporter). Format: cell-based, HCV genotype 1b. As to conditions: Hepatitis C virus, Huh-7, 72 h; 2209-23 cells, three days incubation. On the technique in general: A replicon is a self-replicating genome or part of one, used to study replication in cells.
Series [4] concerns HCV. As to conditions: cited from earlier work.

In turn, `CC(C)(C)c1nc(-c2ccc(O)[nH]c2=O)c2ccc(N3CC[C@H](CNS(C)(=O)=O)C3)cc2n1` [Compound I-2] registered a melting point of 205.8 to 207.9 °C. This compound also displayed a concentration for half-maximal inhibition (IC50) in series [1] of 3.5 nM.

`CC(C)(C)c1nc(-n2ccc(=O)[nH]c2=O)c2ccc(-c3ccc(NS(C)(=O)=O)cc3)cc2n1` [Compound I-3, N-{4-[2-tert-Butyl-4-(2,4-dioxo-3,4-dihydro-2H-pyrimidin-1-yl)-quinazolin-7-yl]-phenyl}-methanesulfonamide]: the melting point was 186 to 190 °C. Besides, in series [2], the CC50 at 3 days was determined as 44000 nM. In series [1], this compound had an IC50 of under 0.1 nM. In addition, 17 nM corresponded to half-maximal inhibition in series [3] (IC50).

Compound `CC(C)(C)c1nc(-c2ccc(O)[nH]c2=O)c2ccc(-c3ccc(NS(C)(=O)=O)cc3)cc2n1` [Compound I-4, N-{4-[2-tert-Butyl-4-(6-hydroxy-2-oxo-1,2-dihydro-pyridin-3-yl)-quinazolin-7-yl]-phenyl}-methanesulfonamide] gave an IC50 in series [1] of 2.4 nM. That is a single-digit nanomolar value.

`CC(C)(C)c1nc(-n2ccc(=O)[nH]c2=O)c2ncc(-c3ccc(NS(C)(=O)=O)cc3)cc2n1` [Compound I-5, N-{4-[2-tert-Butyl-4-(2,4-dioxo-3,4-dihydro-2H-pyrimidin-1-yl)-pyrido[3,2-d]pyrimidin-7-yl]-phenyl}-methanesulfonamide] returned an IC50 in series [1] of 5.5 nM.

`Cc1ccc(-c2nc(C(C)(C)C)nc3cc(-c4ccc(NS(C)(=O)=O)cc4)cnc23)c(=O)[nH]1` [Compound I-6] showed a concentration for half-maximal inhibition (IC50) in series [1] of 9.7 nM.

Consider `NC(=O)c1ncn([C@@H]2O[C@H](CO)[C@@H](O)[C@H]2O)n1` [ribavirin, 1-((2R,3R,4S,5R)-3,4-Dihydroxy-5-hydroxymethyl-tetrahydro-furan-2-yl)-1H-[1,2,4]triazole-3-carboxylic acid amide], for which the “patients with serum amino transferase levels reduced to normal” value in series [4] (monotherapy) was 40%. In addition, the “effect on serum levels of HCV-RNA” value in series [4] (sole treatment / monotherapy) is listed as “does not lower serum levels of HCV-RNA”.

As a reminder, the melting point is the temperature, or range, at which the solid turns liquid. Usually IC50 stands for the concentration that gives 50% inhibition.
